Experiments:
HepG2 cell line = test: MTT cytotoxicity assay, HepG2 cell line; assay type: cell-based, Human; conditions: HepG2 hepatocellular cancer cell line, etoposide positive control
Method: (§1) The cytotoxic activities of all isolated compounds were evaluated by MTT assay.
(§2) According to the previous procedure, all isolated compounds were evaluated for cytotoxic activities against Eca-109, MCF-7, and HepG2 cell lines, as well as a normal human umbilical vein endothelial cell line (HUVEC) (Table 3). Etoposide was used as the positive control.
(§3) The UV spectra were measured on a Shimadzu UV-1700 spectrometer (Shimadzu Corporation, Kyoto, Japan). The IR spectra were measured on a Nicolet 10 Microscope Spectrometer (Thermo Scientific, San Jose, CA, USA). The 1D and 2D NMR spectra were recorded on Bruker-AC (E)-500 spectrometer (Bruker AM 500, Fällanden, Switzerland) using TMS as an internal standard. The HR-ESI-MS was determined on a Bruker microTOF-Q instrument (Bruker BioSpin, Rheinstetten, Germany). Column chromatography was performed with silica gel (200–300 mesh; Qingdao Marine Chemical Inc., Qingdao, China), sephadex LH-20 (GE Healthcare), ODS (50 µm; YMC Co. LTD., Kyoto, Japan.), AB-8 macroporous resin (Qinshi Science and Technology Ltd., Zhengzhou, China). Thin layer chromatography (TLC) was carried out on silica gel GF254 precoated plates (Qingdao Marine Chemical Inc., Qingdao, China), and spots were visualized under UV light. Preparative HPLC separations were performed on a SEP system (Beijing Sepuruisi scientific Co., Ltd., China) equipped with a variable-wavelength UV detector, using a YMC-Pack ODS-A column (250 × 20 mm, 5 μm). Chemical reagents for isolation were of analytical grade and purchased from Tianjin Siyou Co., Ltd., China. Biological reagents were from Sigma Company. Human heptocellular (HepG2), esophageal (Eca-109), and breast (MCF-7) cancer cell lines were from Institute of Materia Medica, Chinese Academy of Medical Sciences and Peking Union Medical College, China.

Eca-109 cell line = test: MTT cytotoxicity assay, Eca-109 cell line; assay type: cell-based, Human; conditions: Eca-109 esophageal cancer cell line, etoposide positive control
Method: as §1, §2, §3

MCF-7 cell line = test: MTT cytotoxicity assay, MCF-7 cell line; assay type: cell-based, Human; conditions: etoposide positive control
Method: as §1, §2, §3

[1] = MTT cytotoxicity assay, normal HUVEC cell line; assay type: cell-based; conditions: HUVEC (normal human umbilical vein endothelial cells)
Method: (§4) According to the previous procedure [22], all isolated compounds were evaluated for cytotoxic activities against Eca-109, MCF-7, and HepG2 cell lines, as well as a normal human umbilical vein endothelial cell line (HUVEC) (Table 3). Etoposide was used as the positive control.

[2] = tested on: normal human umbilical vein endothelial cell line (HUVEC); test: MTT cytotoxicity assay, normal HUVEC cell line; assay type: cell-based
Method: as §4

[3] = Homo sapiens, MCF7, MCF-7 breast cancer cell line

Row | Compound | IC50 (HepG2 cell line; Homo sapiens) [µM] | IC50 (Eca-109 cell line; Homo sapiens) [µM] | IC50 (MCF-7 cell line; [3]) [µM] | IC50 [1] [µM] | IC50 (HepG2 cell line) [µM] | IC50 (Eca-109 cell line) [µM] | IC50 (MCF-7 cell line; MCF-7 breast cancer cell line) [µM] | IC50 [2] [µM]
1 | COc1cc2ccc(=O)oc2cc1O[C@@H]1O[C@H](CO)[C@@H](O)[C@H](O[C@@H]2O[C@H](CO)[C@@H](O)[C@H](O)[C@H]2O)[C@H]1O [Compound 3, 7-[(3-O-β-D-glucopyranosyl-β-D-glucopyranosyl)oxy]-6-methoxycoumarin] | > 100 | > 100 | > 100 |  |  |  |  | 
2 | COc1cc2ccc(=O)oc2c(O[C@@H]2O[C@H](CO)[C@@H](O)[C@H](O)[C@H]2O)c1O[C@@H]1O[C@H](CO)[C@@H](O)[C@H](O)[C@H]1O [Compound 6, 7,8-bis(β-D-glucopyranosyloxy)-6-methoxycoumarin] | > 100 | > 100 | > 100 |  |  |  |  | 
3 | COc1cc2ccc(=O)oc2c(O)c1O [Compound 12, fraxetin] | 30.3 ± 1.18 | 20.4 ± 1.94 | 28.6 ± 1.37 | > 100 |  |  |  | 
4 | COc1cc2ccc(=O)oc2cc1O [Compound 13, scopoletin] | 53.7 ± 4.09 | 45.7 ± 3.55 | 61.6 ± 5.7 | > 100 |  |  |  | 
5 | COc1cc2ccc(=O)oc2c(O)c1OC [Compound 14, fraxidin] | > 100 | 41.1 ± 3.78 | 59.6 ± 5.24 | > 100 |  |  |  | 
6 | COc1cc2ccc(=O)oc2cc1OC [Compound 16, scoparone] | > 100 | > 100 | > 100 |  |  |  |  | 
7 | COc1cc([C@@H]2c3cc4c(cc3[C@@H](O[C@@H]3O[C@@H]5CO[C@@H](C)O[C@H]5[C@H](O)[C@H]3O)[C@H]3COC(=O)[C@H]23)OCO4)cc(OC)c1O [etoposide, reference compound] | 1.15 ± 0.09 | 20.5 ± 1.82 | 5.82 ± 0.49 |  |  |  |  | 
8 | cleomiscosin A [Compound 11] |  |  |  |  | 43.7 ± 3.97 | 21 ± 1.85 | 35.3 ± 2.61 | > 100
